Laboratory results published in article PMC3758303 (PLoS ONE, 2013).

Assays:
[1] = system: HCV-RNA in OR6 cells; assay: Curing of OR6 cells by N-89 treatment (G418 selection, Western blot); assay type: cell-based, hepatitis C virus; conditions: 8 µM, 3 weeks, addition at 4-day intervals, absence of G418
Method: (§1) To date, IFN-α alone or IFN-γ alone has generally been used to prepare cured cells from the cells harboring HCV-RNA [36]. Since we observed strong anti-HCV activity (>99% suppression) at 8 µM of N-89 in OR6 cells or 1 µM of N-89 in ORL8 cells without a decrease in cell viability (Fig. 1B), we expected that these cells might be cured only by treatment with N-89. Accordingly, OR6 and ORL8 cells were treated with 8 µM and 1 µM of N-89, respectively, in the absence of G418. The treatment was continued for 3 weeks with the addition of N-89 at 4-day intervals.
(§2) Figure 3 OR6 and ORL8 cells were cured by treatment with only N-89. The treated cells were divided into two plates with or without G418, and then cultured for 2 weeks. The left panels show the cells stained with Coomassie brilliant blue. The right panels show the results of Western blot analysis of the treated and non-treated cells for HCV proteins. Western blot analysis was performed as described in Fig. 1B.

[2] = system: mice; design: method as in PMID 11428929, PMID 17273878, PMID 12723958; conditions: cited from earlier work
[3] = system: Plasmodium berghei; design: method as in PMID 11428929, PMID 17273878, PMID 12723958; conditions: cited from earlier work
[4] = system: HCV-RNA in ORL8 cells; assay: Curing of ORL8 cells by N-89 treatment (G418 selection, Western blot); assay type: cell-based, hepatitis C virus; conditions: 1 µM, 3 weeks, addition at 4-day intervals, absence of G418
Method: as §1, §2

C1CCCCCC2(CCCCC1)OOCCCOO2 [N-89, 1,2,6,7-Tetraoxaspiro[7.11]nonadecane]
curing of HCV-RNA-replicating cells [1]: cured
50% lethal dose [2]: > 2000 mg/kg
antimalarial activity in vivo [3]: potent antimalarial activity
curing of HCV-RNA-replicating cells [4]: cured
